Experimental data taken from US8492379B2, “Translocator protein ligands” (The University of Sydney, priority 2007, dated 2013).

Biological target: TSPO (Rattus norvegicus (Rat), UniProt P16257)
Assay: In vitro binding affinity, 3H-PK11195 displacement in kidney mitochondria
Settings: 0.6 nM 3H-PK11195, mitochondria from kidneys of male Wistar rats, 90 min at 4° C.
Procedure: 3H-PK11195 (specific activity 322 GBq/mmol) and 3H-Ro 15-1788 (specific activity 311 GBq/mmol) were purchased from Dupont-New England Nuclear. For binding studies, mitochondria were prepared as described in Trapani G., et al. J Med Chem. 1997; 40:3109-3118, with minor modifications as described here, from the kidneys of male Wistar rats killed by cervical dislocation. The kidneys were homogenized in 20 volumes of ice-cold 50 mM Tris-HCl (pH 7.4), 0.32 M sucrose, and 1 mM ethylenediaminetetraacetic acid (buffer A) containing protease inhibitors (benzamidine at […], bacitracin at […], and soybean trypsin inhibitor at […]) with a Teflon (DuPont) pestle in a glass homogenizer and centrifuged at 600 g for 10 min at 4° C. The resulting supernatant was centrifuged at 10,000 g for 10 min at 4° C. The pellet was suspended in 20 volumes of ice cold buffer A and centrifuged at 10,000 g for 10 min at 4° C. The crude mitochondrial pellet was frozen at −20° C. until the time of the assay or incubated with 0.6 nM 3H-PK11195 in 50 mM Tris-HCl (pH 7.4) (buffer B) with a range of concentrations of the tested compounds (0.1 nM-10 mM) in a total volume of 0.5 mL for 90 min at 4° C. The incubation was terminated by dilution to 5 mL with icecold buffer B; this step was followed immediately by rapid filtration through glass fiber Whatman GF/C filters. The filters were washed (2.5 mL) with buffer B, and the amount of radioactivity retained on the filters was determined with a Packard 1600 TR liquid scintillation counter at 66% efficiency. Nonspecific binding was estimated for each sample in the presence of unlabeled 1 mM PK11195. The 50% inhibitory concentrations were determined, and the dissociation constant (Ki) values were derived according to a previously derived equation (Cheng Y., et al. Biochem Pharmacol. 1973; 22:3099-3108). The protein concentration was estimated by the method of Lowry et al. (J Biol Chem. 1951; 193:265-275) with bovine serum albumin (Sigma-Aldrich) as the standard.

TSPO, sequence (P16257 whole entry, looked up): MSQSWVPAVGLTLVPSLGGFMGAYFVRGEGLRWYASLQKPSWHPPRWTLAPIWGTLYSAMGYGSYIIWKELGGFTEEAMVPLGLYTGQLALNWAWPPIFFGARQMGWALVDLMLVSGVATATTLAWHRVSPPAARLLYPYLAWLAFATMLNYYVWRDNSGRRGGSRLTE

`CCN(CC)C(=O)Cc1c(-c2ccc(C)cc2)nc2c(C)cc(C)nn12` and `CCN(CC)C(=O)Cc1c(-c2ccc(Cl)cc2)nc2c(C)cc(C)nn12` are within 1.5-fold of each other in Ki: 0.46 nM for the first, 0.45 nM for the second.

Going from `CCN(CC)C(=O)Cc1c(-c2ccc(Br)cc2)nc2c(C)cc(C)nn12` to `CCN(CC)C(=O)Cc1c(-c2ccc(F)cc2)nc2c(C)cc(C)nn12`, the Ki rises from 0.97 nM to 2.4 nM (2.5-fold).

`CCN(CC)C(=O)C(Oc1cccnc1-n1cccc1)c1ccc(OC)cc1` (centres unmarked) and `CCN(CC)C(=O)C(Oc1ccccc1-n1cccc1)c1ccc(OC)cc1` (centres unmarked) are within 1.5-fold of each other in Ki: 4 nM for the first, 5 nM for the second.

Molecule `CCN(CC)C(=O)C(Oc1ccc(Cl)cc1-n1cccc1)c1ccc(OC)cc1` (centres unmarked) has a Ki of 5.7 nM.

Biological target: TSPO in microglia (Rattus norvegicus (Rat), UniProt P16257)
Assay: not given
Settings: quinolinic acid-injected rat striatum; cited from earlier work

TSPO in microglia, sequence (P16257 whole entry): as the sequence (P16257 whole entry, looked up) above

In the case of `CCC(C)N(C)C(=O)c1cc2ccccc2c(-c2ccccc2Cl)n1` (centres unmarked) [PK 11195], the “effect on microglial activation and neuronal death” value is listed as “reduces microglial activation and neuronal death”.
